Measured values from EP4678639A1, “SALT OF BENZIMIDAZOLE DERIVATIVE” (JW Pharmaceutical Corporation, priority 2023, dated 2024).
Entries after “also recorded” stand apart in the source; their conditions may differ. Structures can show the parent of a compound that is named as a salt. Where two headings read alike, the source gives them in different places.

How the values were obtained:
[1] = Solid-state stress stability test (humidity 90 % RH); settings: for Initial (%) Degradant / Initial (%) Total Related substances: Table 9, initial; for Remarks: state of the solid; for Change in Quality (%) 90 % RH (4 weeks) Degradant / Change in Quality (%) 90 % RH (4 weeks) Purity: Table 12 summary
[2] = Solid-state stress stability test (temperature 60 °C); settings: for total related substances increased after 1 month / After 1 Month (%) Degradant / After 1 Month (%) Total Related substances / change in appearance, change in the color of the solid / Change (%) Degradant / Remarks: 60 °C; for After 1 Month (%) Degradant / After 1 Month (%) Total Related substances / change in appearance, change in the color of the solid / Remarks: 1 month; for Change (%) Degradant: 1 month vs initial; for Remarks: appearance; for Initial (%) Degradant / Initial (%) Total Related substances: Table 8, initial; for Change in Quality (%) 60 °C (4 weeks) Purity / Change in Quality (%) 60 °C (4 weeks) Degradant: Table 12 summary
[3] = Photostability test, visible light (1.2 Mlux·hr) exposure; settings: for Initial (%) Degradant / Initial (%) Total Related substances: Table 11, initial; for After (%) Degradant / After (%) Total Related substances: Table 11 under heading Visible Light (1.2 Mlux-hr) Exposure Test; for Change (%) Degradant: Table 11, after exposure vs initial; for Change in Quality (%) Light (Visible) Degradant: Table 12 summary
Protocol: (§1) A photostability comparative test was conducted on each of the above-mentioned prepared tegoprazan acid addition salts. The test was conducted by exposing the sample to light with an energy of 200 W hr/m^2 of ultraviolet light and 1.2 Mlux hr of visible light in accordance with The International Council for Harmonisation of Technical Requirements for Pharmaceuticals for Human Use (ICH) guideline, with the samples packaged in a single PE bag and spread thinly enough to ensure exposure to the light source, taking humidity stability into consideration. The purity of the acid addition salts and the change in the amount of degradants at the initial time point and after exposure to ultraviolet light or visible light were measured by HPLC.

[4] = Photostability test, ultraviolet light (200 W·hr/m2) exposure; settings: for After Ultraviolet Light Exposure (200 W hr/m2)(%) Degradant / After Ultraviolet Light Exposure (200 W hr/m2)(%) Total Related substances: Table 10, UV 200 W·hr/m2, PE bag; for Change (%) Degradant: Table 10, after UV exposure vs initial; for Initial (%) Degradant / Initial (%) Total Related substances: Table 10, initial
Protocol: as §1

[5] = Solid-state accelerated stability test (40 ± 2 °C/RH 75 ± 5 %); settings: for Change (%) Degradant: 1 month vs initial; for Initial (%) Degradant: degradant of Formula 4; for Change in Quality (%) Accelerated (4 weeks) Purity / Change in Quality (%) Accelerated (4 weeks) Degradant: Table 12 summary
Protocol: Operation and Calculation: The blank solution, standard solution, and test solution were sequentially tested under the instrument operating conditions according to the liquid chromatography method in the General Test Methods of the 12th Edition of the Korean Pharmacopoeia, and the amount of related substances was calculated using the following equation. Amount of each related; substance (%) = (AT)/(AS) × (CS)/(CT) × (Molecular weight; of the sample)/(Molecular weight; of the standard; product) × P × (1)/(RR; F) [formula] AT = Area of each related substance peak obtained from the test solution AS = Area of the tegoprazan peak obtained from the standard solution CS = Concentration of standard solution (mg/mL) CT = Concentration of test solution (mg/mL) P = Purity/Assay/Potency (%) of standard product RRF = Relative response factor (1.0)
A solid-state stability comparative test was conducted on each of the above-mentioned prepared tegoprazan acid addition salts. The stability comparative test was conducted for 1 month under the conditions shown in Table 6 below in accordance with The International Council for Harmonisation of Technical Requirements for Pharmaceuticals for Human Use (ICH) guideline, and the purity of the acid addition salt, total related substances, and the content of degradants were measured by HPLC at the initial time point and after 1 month. Total related substances and degradants were measured according to the related substance test method (HPLC).

[6] = Liquid stability comparative test (20 mg/mL in purified water, 40 °C, 24 hours, HPLC); assay type: physicochemical; settings: for After 24 hours Purity (%) / Initial Purity (%) / After 24 hours Degradant (%) / Initial Degradant (%): 20 mg/mL in purified water; for After 24 hours Purity (%) / After 24 hours Degradant (%): 40 °C; for Initial Purity (%) / Initial Degradant (%): initial time point; for After 24 hours Degradant (%) / Initial Degradant (%): degradant of Formula 4; for solid precipitation / solution state: stored at 40 °C for 24 hours
Protocol: The analysis conditions are as follows.
Each sample was dissolved in purified water to prepare a solution with a concentration of 20 mg/mL, stored at an external temperature of 40 °C, and analyzed by HPLC at the initial time point and after 24 hours to measure purity, and the change in the generated degradant (Formula 4) was measured. The analysis of total related substances and degradants was performed by taking a liquid from a solution prepared at a concentration of 20 mg/mL, diluting it to a concentration of 4 mg/mL with the diluent of the related substance test method (HPLC), and measuring it as a test solution, and analyzing it according to the related substance test method (HPLC).

[7] = 40 ± 2 °C / RH 75 ± 5 %, 1 month

Molecule: Cc1nc2c(O[C@H]3CCOc4cc(F)cc(F)c43)cc(C(=O)N(C)C)cc2[nH]1 [Hydrobromide Salt]
- After 1 Month (%) Degradant ([1]; 90 % RH, 1 month): 3.698%
- After 1 Month (%) Total Related substances ([1]; 90 % RH, 1 month): 3.922%
- Change (%) Degradant ([1]; 90 % RH, 1 month vs initial): 1.726%
- Initial (%) Degradant [1]: 1.972%
- Initial (%) Total Related substances [1]: 2.173%
- total related substances increased after 1 month [2]: ≥ 5.0%
- After 1 Month (%) Degradant [2]: 7.787%
- After 1 Month (%) Total Related substances [2]: 8.905%
- change in appearance, change in the color of the solid [2]: change in appearance
- Change (%) Degradant [2]: 5.815%
- Remarks [2]: Discolorat ion
- Initial (%) Degradant [2]: 1.972%
- Initial (%) Total Related substances [2]: 2.173%
- Remarks ([3]; Table 11, after exposure, appearance): Discolorat ion
- Initial (%) Degradant [3]: 1.972%
- Initial (%) Total Related substances [3]: 2.173%
- After (%) Degradant [3]: 1.956%
- After (%) Total Related substances [3]: 2.227%
- changes in appearance ([3]; visible light exposure): changes in appearance
- After Ultraviolet Light Exposure (200 W hr/m2)(%) Degradant [4]: 2.028%
- After Ultraviolet Light Exposure (200 W hr/m2)(%) Total Related substances [4]: 2.265%
- Change (%) Degradant [4]: 0.056%
- Initial (%) Degradant [4]: 1.972%
- Initial (%) Total Related substances [4]: 2.173%
- After 1 Month (%) Degradant [5, 7]: 2.188%
- After 1 Month (%) Total Related substances [5, 7]: 2.519%
- Change (%) Degradant ([5]; 40 ± 2 °C / RH 75 ± 5 %): 0.216%
- Initial (%) Total Related substances ([5]; Table 7, initial): 2.173%
- Initial (%) Degradant ([5]; Table 7, initial): 1.972%
- increase in total related substances after 1 month ([5]; accelerated stability): ≥ 0.3%

Molecule: Cc1nc2c(O[C@H]3CCOc4cc(F)cc(F)c43)cc(C(=O)N(C)C)cc2[nH]1 [Hydrochloride Salt (Amorphous Form)]
- Amount of Change Degradant (%) [6]: 0.21%
- After 24 hours Purity (%) [6]: 99.69%
- Initial Purity (%) [6]: 99.94%
- After 1 Month (%) Total Related substances ([1]; 90 % RH, 1 month): 0.335%
- change ([1]; 90 % RH, 1 month): ≤ 0.15%
- Initial (%) Total Related substances [1]: 0.207%
- After 1 Month (%) Total Related substances [2]: 1.536%
- Initial (%) Total Related substances [2]: 0.207%
- Change in Quality (%) 60 °C (4 weeks) Purity [2]: -1.329%
- Initial (%) Total Related substances [3]: 0.207%
- After (%) Total Related substances [3]: 0.637%
- After Ultraviolet Light Exposure (200 W hr/m2)(%) Total Related substances [4]: 0.313%
- Initial (%) Total Related substances [4]: 0.207%
- After 1 Month (%) Total Related substances [5, 7]: 0.467%
- Initial (%) Total Related substances ([5]; Table 7, initial): 0.207%
- Change in Quality (%) Accelerated (4 weeks) Purity [5]: -0.260%

Molecule: Cc1nc2c(O[C@H]3CCOc4cc(F)cc(F)c43)cc(C(=O)N(C)C)cc2[nH]1 [Malate Salt]
- After 24 hours Purity (%) [6]: Solid precipitated
- Initial Purity (%) [6]: 99.98%
- After 24 hours Degradant (%) [6]: Solid precipitated
- solid precipitation / solution state [6]: solid precipitation; also recorded: solids were precipitated
- absorb moisture and deliquesce / melted ([1]; 90 % RH): absorb moisture and deliquesce; also recorded: melted
- Remarks ([1]; 90 % RH, 1 month): Melted
- Initial (%) Degradant [1]: 0.004%
- Initial (%) Total Related substances [1]: 0.146%
- Change in Quality (%) 90 % RH (4 weeks) Degradant [1]: Melted
- Change in Quality (%) 90 % RH (4 weeks) Purity [1]: Melted
- After 1 Month (%) Degradant [2]: 1.320%
- After 1 Month (%) Total Related substances [2]: 2.026%
- Change (%) Degradant [2]: 1.316%
- Initial (%) Degradant [2]: 0.004%
- Initial (%) Total Related substances [2]: 0.146%
- Change in Quality (%) 60 °C (4 weeks) Degradant [2]: 1.316%
- Change in Quality (%) 60 °C (4 weeks) Purity [2]: -1.880%
- Change (%) Degradant [3]: 0.031%
- Initial (%) Degradant [3]: 0.004%
- Initial (%) Total Related substances [3]: 0.146%
- After (%) Degradant [3]: 0.035%
- After (%) Total Related substances [3]: 0.263%
- Change in Quality (%) Light (Visible) Degradant [3]: 0.031%
- After Ultraviolet Light Exposure (200 W hr/m2)(%) Degradant [4]: 0.011%
- After Ultraviolet Light Exposure (200 W hr/m2)(%) Total Related substances [4]: 0.172%
- Change (%) Degradant [4]: 0.007%
- Initial (%) Degradant [4]: 0.004%
- Initial (%) Total Related substances [4]: 0.146%
- Change in Quality (%) Light (Ultraviolet) Degradant ([4]; Table 12 summary): 0.007%
- After 1 Month (%) Degradant [5, 7]: 0.049%
- After 1 Month (%) Total Related substances [5, 7]: 0.236%
- Change (%) Degradant ([5]; 40 ± 2 °C / RH 75 ± 5 %): 0.045%
- Initial (%) Total Related substances ([5]; Table 7, initial): 0.146%
- Initial (%) Degradant ([5]; Table 7, initial): 0.004%
- Change in Quality (%) Accelerated (4 weeks) Degradant [5]: 0.045%
- Change in Quality (%) Accelerated (4 weeks) Purity [5]: -0.090%
- purity change after 1 month ([5]; accelerated stability): ≤ 0.1%

Molecule: Cc1nc2c(O[C@H]3CCOc4cc(F)cc(F)c43)cc(C(=O)N(C)C)cc2[nH]1 [Methanesulfonate Salt (Amorphous Form)]
- After 24 hours Purity (%) [6]: 99.34%
- Initial Purity (%) [6]: 99.90%
- After 24 hours Degradant (%) [6]: 0.552%
- Initial Degradant (%) [6]: 0.063%
- Amount of Change Degradant (%) ([6]; initial vs after 24 hours at 40 °C): 0.49%
- absorb moisture and deliquesce / melted ([1]; 90 % RH): absorb moisture and deliquesce
- Remarks ([1]; 90 % RH, 1 month): Melted
- Initial (%) Degradant [1]: 0.284%
- Initial (%) Total Related substances [1]: 0.530%
- Change in Quality (%) 90 % RH (4 weeks) Degradant [1]: Melted
- Change in Quality (%) 90 % RH (4 weeks) Purity [1]: Melted
- total related substances increased after 1 month [2]: ≥ 5.0%
- After 1 Month (%) Degradant [2]: 9.245%
- After 1 Month (%) Total Related substances [2]: 12.245%
- change in appearance, change in the color of the solid [2]: change in appearance
- Change (%) Degradant [2]: 8.961%
- Remarks [2]: Discolorat ion
- Initial (%) Degradant [2]: 0.284%
- Initial (%) Total Related substances [2]: 0.530%
- Change in Quality (%) 60 °C (4 weeks) Degradant [2]: 8.961%
- Change (%) Degradant [3]: 0.154%
- Initial (%) Degradant [3]: 0.284%
- Initial (%) Total Related substances [3]: 0.530%
- After (%) Degradant [3]: 0.438%
- After (%) Total Related substances [3]: 0.909%
- Change in Quality (%) Light (Visible) Degradant [3]: 0.154%
- After Ultraviolet Light Exposure (200 W hr/m2)(%) Degradant [4]: 0.366%
- After Ultraviolet Light Exposure (200 W hr/m2)(%) Total Related substances [4]: 0.599%
- Change (%) Degradant [4]: 0.082%
- Initial (%) Degradant [4]: 0.284%
- Initial (%) Total Related substances [4]: 0.530%
- Change in Quality (%) Light (Ultraviolet) Degradant ([4]; Table 12 summary): 0.082%
- Change in Quality (%) Light (Ultraviolet) Purity ([4]; Table 12 summary): 0.069%
- After 1 Month (%) Degradant [5, 7]: 1.124%
- After 1 Month (%) Total Related substances [5, 7]: 1.653%
- Change (%) Degradant ([5]; 40 ± 2 °C / RH 75 ± 5 %): 0.840%
- Initial (%) Total Related substances ([5]; Table 7, initial): 0.530%
- Initial (%) Degradant ([5]; Table 7, initial): 0.284%
- Change in Quality (%) Accelerated (4 weeks) Degradant [5]: 0.840%
- Change in Quality (%) Accelerated (4 weeks) Purity [5]: -1.123%
- increase in total related substances after 1 month ([5]; accelerated stability): ≥ 0.3%

Molecule: Cc1nc2c(O[C@H]3CCOc4cc(F)cc(F)c43)cc(C(=O)N(C)C)cc2[nH]1 [Phosphate Salt]
- After 24 hours Purity (%) [6]: Solid precipitated
- Initial Purity (%) [6]: 99.97%
- After 24 hours Degradant (%) [6]: Solid precipitated
- Initial Degradant (%) [6]: 0.010%
- solid precipitation / solution state [6]: solid precipitation
- absorb moisture and deliquesce / melted ([1]; 90 % RH): absorb moisture and deliquesce
- Remarks ([1]; 90 % RH, 1 month): Melted
- Initial (%) Degradant [1]: 0.085%
- Initial (%) Total Related substances [1]: 0.254%
- After 1 Month (%) Degradant [2]: 1.668%
- After 1 Month (%) Total Related substances [2]: 2.423%
- Change (%) Degradant [2]: 1.583%
- Initial (%) Degradant [2]: 0.085%
- Initial (%) Total Related substances [2]: 0.254%
- Change (%) Degradant [3]: 0.055%
- Initial (%) Degradant [3]: 0.085%
- Initial (%) Total Related substances [3]: 0.254%
- After (%) Degradant [3]: 0.140%
- After (%) Total Related substances [3]: 0.449%
- After Ultraviolet Light Exposure (200 W hr/m2)(%) Degradant [4]: 0.096%
- After Ultraviolet Light Exposure (200 W hr/m2)(%) Total Related substances [4]: 0.277%
- Change (%) Degradant [4]: 0.011%
- Initial (%) Degradant [4]: 0.085%
- Initial (%) Total Related substances [4]: 0.254%
- After 1 Month (%) Degradant [5, 7]: 0.205%
- After 1 Month (%) Purity [5, 7]: 99.6%
- After 1 Month (%) Total Related substances [5, 7]: 0.327%
- Change (%) Degradant ([5]; 40 ± 2 °C / RH 75 ± 5 %): 0.120%
- Initial (%) Purity ([5]; Table 7, initial): 99.7%
- Initial (%) Total Related substances ([5]; Table 7, initial): 0.254%
- Initial (%) Degradant ([5]; Table 7, initial): 0.085%

Molecule: maleate
- solid precipitation / solution state [6]: a solid precipitated
- absorb moisture and deliquesce / melted ([1]; 90 % RH): deliquesced
